Source: the supplement of paper PMC10307832

Assays:
Experiment in all cases: relative viability (nuclei count vs DMSO), 5 days (fraction); higher = more cells survive
[1] = compound: CCC1=CN=CN=C1N2CCN(CC2)CC3=NC4=C(N3)C=C(C=C4)C(F)(F)F
Procedure, shortened: (§1)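 For viability, nuclei in each treated well were divided by nuclei in vehicle wells and the median across plates was taken. Lung cancer cell lines in 1536-well plates were pinned with five library-drug doses (not always all listed) spaced by √10, cultured 5 days without medium change, and imaged at 4× after Hoechst staining, with plates passing only at control CV below 25% and at least one doubling.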

[2] = compound: N=C1NC(=O)/C(=C/c2ccc(O)cc2)S1 [Mirin]
Procedure, shortened: as §1

[3] = compound: CCn1c(-c2nonc2N)nc2cnc(Oc3cccc(NC(=O)c4ccc(OCCN5CCOCC5)cc4)c3)cc21
Procedure, shortened: as §1

[4] = compound: CCC1=CN=CN=C1N2CCN(CC2)CC3=NC4=C(N3)C=C(C=C4)C(F)(F)F + Cc1nc(NC(=O)N2CCC[C@H]2C(N)=O)sc1-c1ccnc(C(C)(C)C(F)(F)F)c1 [Alpelisib] (partner 2 µM)
Procedure, shortened: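 Dosing by pin tool came one day after lung cancer cell lines were seeded in 1536-well plates, using either one drug or a fixed anchor-drug dose plus five library-drug doses (not always all listed) in √10 steps. After 5 days, nuclei were counted on 4× images. Relative viability is treated-well nuclei count divided by vehicle-well nuclei count, and values are medians of duplicate plates.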

Cell Line	relative viability ([1]; 0.04 µM)	relative viability ([1]; 0.1265 µM)	relative viability ([1]; 0.4 µM)	relative viability ([1]; 1.265 µM)	relative viability ([1]; 4 µM)	relative viability ([2]; 0.25 µM)	relative viability ([2]; 0.7906 µM)	relative viability ([2]; 2.5 µM)	relative viability ([2]; 7.906 µM)	relative viability ([2]; 25 µM)	relative viability ([3]; 0.04 µM)	relative viability ([3]; 0.1265 µM)	relative viability ([3]; 0.4 µM)	relative viability ([3]; 1.265 µM)	relative viability ([3]; 4 µM)	relative viability ([4]; first compound 0.04 µM)	relative viability ([4]; first compound 0.1265 µM)	relative viability ([4]; first compound 0.4 µM)	relative viability ([4]; first compound 1.265 µM)	relative viability ([4]; first compound 4 µM)
NCI-H2347	1.05	0.986	1.04	0.827	1.09	0.962	0.972	1.08	0.957	1.03	1.1	1.02	0.878	0.504	0.546	1.07	1.07	0.948	0.769	0.938
NCI-H1437	0.948	0.92	0.921	0.863	0.747	1	1.02	0.984	0.995	0.958	1.03	0.933	0.763	0.796	0.705	1	0.93	0.831	0.795	0.855
SK-MES-1	1.04	0.975	0.983	1	0.985	1.02	1.1	1.05	1.12	1.28	1.1	0.915	0.82	0.709	0.746	0.986	1.05	0.852	0.868	0.86
NCI-H3122	1.05	1.01	0.964	1.03	1.1	1.03	0.953	1.02	1.08	1.1	1.01	0.978	0.924	0.755	0.695	0.954	0.77	0.856	1.01	0.872
NCI-H2023	1.03	0.914	0.917	0.858	1.03	1.01	0.937	0.958	0.975	0.86	1.13	0.964	0.743	0.508	0.419	0.593	0.576	0.616	0.602	0.571
PC-14	0.97	0.919	0.99	0.979	1	0.975	0.906	1.03	1.05	1.13	1.08	0.834	0.809	0.729	0.653	1.07	0.869	0.959	0.766	0.982
NCI-H1299	1.04	1.01	0.986	1.01	1.01	0.999	1.09	1.03	1	1.16	1.03	0.931	0.84	0.767	0.681	1.09	1.07	1.04	1.03	1.04
NCI-H1563	0.956	0.965	0.953	0.9	1	1.03	1.21	0.995	0.942	0.951	0.853	0.872	0.868	0.86	0.778	0.887	0.92	1	0.986	0.954
